Experiments:
human PPAR α = molecular target: T1, human PPAR α (Homo sapiens, UniProt Q07869); assay: In vitro PPAR alpha transactivation assay (GAL4-DBD-PPAR-LBD luciferase reporter in HEK293 cells); format: cell-based; settings: for EC50: HEK293 cells, 24 h with compound, five concentrations 0.01 to 30 μM, means of at least three experiments, read-out: In vitro activation PPAR α EC50; for In vitro activation PPAR α % max: fold activation relative to maximum activation obtained with Wy14643 (approx. 20 fold corresponded to 100%)
T1 construct: PPARα: aa 167-C-terminus; PPARγ: aa 165-C-terminus; expressed in transfected cells; host or cells: HEK293
T1 sequence (Q07869 167-468 limits assumed): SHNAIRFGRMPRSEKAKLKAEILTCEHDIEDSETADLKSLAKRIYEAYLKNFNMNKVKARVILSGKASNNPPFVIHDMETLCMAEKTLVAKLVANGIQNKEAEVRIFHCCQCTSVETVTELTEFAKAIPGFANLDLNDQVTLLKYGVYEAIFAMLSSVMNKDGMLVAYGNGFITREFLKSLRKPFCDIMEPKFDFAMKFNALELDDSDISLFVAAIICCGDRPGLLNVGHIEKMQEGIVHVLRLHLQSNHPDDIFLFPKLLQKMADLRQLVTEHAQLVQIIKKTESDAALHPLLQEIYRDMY
Description: (§1) The PPAR gene transcription activation assays were based on transient transfection into human HEK293 cells of two plasmids encoding a chimeric test protein and a reporter protein respectively. The chimeric test protein was a fusion of the DNA binding domain (DBD) from the yeast GAL4 transcription factor to the ligand binding domain (LBD) of the human PPAR proteins. The PPAR LBD harbored in addition to the ligand binding pocket also the native activation domain (activating function 2=AF2) allowing the fusion protein to function as a PPAR ligand dependent transcription factor. The GAL4 DBD will force the fusion protein to bind only to Gal4 enhancers (of which none existed in HEK293 cells). The reporter plasmid contained a Gal4 enhancer driving the expression of the firefly luciferase protein. After transfection, HEK293 cells expressed the GAL4-DBD-PPAR-LBD fusion protein. The fusion protein will in turn bind to the Gal4 enhancer controlling the luciferase expression, and do nothing in the absence of ligand. Upon addition to the cells of a PPAR ligand, luciferase protein will be produced in amounts corresponding to the activation of the PPAR protein. The amount of luciferase protein is measured by light emission after addition of the appropriate substrate.
(§2) Cell culture and transfection: HEK293 cells were grown in DMEM+10% FCS. Cells were seeded in 96-well plates the day before transfection to give a confluency of 50–80% at transfection. A total of 0,8 μg DNA containing 0,64 μg pM1α/γLBD, 0,1 μg pCMVβGal, 0,08 μg pGL2Gal4DBD and 0,02 μg p[…] was transfected per well using FuGene transfection reagent according to the manufacturers instructions (Roche). Cells were allowed to express protein for 48 h followed by addition of compound.
(§3) Plasmids: Human PPAR α and γ was obtained by PCR amplification using cDNA synthesized by reverse transcription of mRNA from liver and adipose tissue respectively. Amplified cDNAs were cloned into pCR2.1 and sequenced. The ligand binding domain (LBD) of each PPAR isoform was generated by PCR(PPARα: aa 167-C-terminus; PPARγ: aa 165-C-terminus) and fused to the DNA binding domain (DBD) of the yeast transcription factor GAL4 by subcloning fragments in frame into the vector pM1 generating the plasmids pM1αLBD and pM1γLBD. Ensuing fusions were verified by sequencing.
(§4) Luciferase assay: Medium including test compound was aspirated and 100 μl PBS incl. 1 mM Mg++ and Ca++ was added to each well. The luciferase assay was performed using the LucLite kit according to the manufacturers instructions (Packard Instruments). Light emission was quantified by counting SPC mode on a Packard Instruments top-counter. To measure β-galactosidase activity 25 μl supernatant from each transfection lysate was transferred to a new microplate. β-galactosidase assays were performed in the microwell plates using a kit from Promega and read in a microplate reader. The β-galactosidase data were used to normalize (transfection efficiency, cell growth etc.) the luciferase data.
(§5) Compounds: All compounds were dissolved in DMSO and diluted 1:1000 upon addition to the cells. Compounds were tested in quadruple in five concentrations ranging form 0.01 to 30 μM. Cells were treated with compound for 24 h followed by luciferase assay. Each compound was tested in three separate experiments. EC50 values were calculated via non-linear regression using GraphPad PRISM 3.02 (GraphPad Software, San Diego, Calif.). The results were expressed as means.
(§6) Compounds were tested in at least three separate experiments in five concentrations ranging from 0.01 to 30 μM.

human PPAR γ = molecular target: T2, human PPAR γ (Homo sapiens, UniProt P37231); assay: In vitro PPAR gamma transactivation assay (GAL4-DBD-PPAR-LBD luciferase reporter in HEK293 cells); format: cell-based; settings: for EC50: HEK293 cells, 24 h with compound, five concentrations 0.01 to 30 μM, means of at least three experiments, read-out: In vitro activation PPAR γ EC50; for In vitro activation PPAR γ % max: fold activation relative to maximum activation obtained with rosiglitazone (approx. […] fold corresponded to 100%)
T2 construct: PPARα: aa 167-C-terminus; PPARγ: aa 165-C-terminus; expressed in transfected cells; host or cells: HEK293
T2 sequence (P37231 165-477 isoform P37231-2): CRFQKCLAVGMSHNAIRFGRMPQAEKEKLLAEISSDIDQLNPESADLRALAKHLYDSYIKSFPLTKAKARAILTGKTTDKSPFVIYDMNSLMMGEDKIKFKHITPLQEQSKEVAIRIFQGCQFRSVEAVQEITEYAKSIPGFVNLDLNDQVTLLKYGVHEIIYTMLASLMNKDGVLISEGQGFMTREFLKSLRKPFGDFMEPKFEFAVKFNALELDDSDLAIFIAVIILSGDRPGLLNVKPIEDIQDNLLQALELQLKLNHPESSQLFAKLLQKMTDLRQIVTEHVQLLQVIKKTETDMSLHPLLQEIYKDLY
Description: as §1, §2, §3, §4, §5, §6

CCOC(Cc1ccc(OCC=C(C)C#Cc2cccc3ccccc23)cc1)C(=O)O (stereo in doubt) [Example 18, (Z)-(S)-2-ethoxy-3-[4-(3-methyl-5-(1-naphthyl)-pent-2-en-4-ynyloxy)-phenyl]-propionic acid]
EC50 (human PPAR α): 160 nM | In vitro activation PPAR α % max (human PPAR α): 181% | EC50 (human PPAR γ): 2670 nM | In vitro activation PPAR γ % max (human PPAR γ): 91%

CCO[C@@H](Cc1ccc(OC/C=C/C#Cc2cc(Cl)cc(Cl)c2)cc1)C(=O)O [Example 20, (E)-(S)-2-Ethoxy-3-[4-(5-(3,5-dichloro-phenyl)-pent-2-en-4-ynyloxy)-phenyl]-propionic acid]
EC50 (human PPAR α): 40 nM | In vitro activation PPAR α % max (human PPAR α): 154% | EC50 (human PPAR γ): 1420 nM | In vitro activation PPAR γ % max (human PPAR γ): 112%

CCO[C@@H](Cc1ccc(OC/C=C(\C)C#Cc2cccc(C(F)(F)F)c2)cc1)C(=O)O [Example 12, (E)-(S)-2-ethoxy-3-[4-(3-methyl-5-(3-trifluoromethyl-phenyl)-pent-2-en-4-ynyloxy)-phenyl]-propionic acid]
EC50 (human PPAR α): 50 nM | In vitro activation PPAR α % max (human PPAR α): 195% | EC50 (human PPAR γ): 340 nM | In vitro activation PPAR γ % max (human PPAR γ): 105%

Cc1cccc(Nc2cc(Cl)nc(SCC(=O)O)n2)c1C [Wy14643, reference compound]
Maximum activation PPAR α (fold activation) (human PPAR α; reference maximum, corresponded to 100%): approx. 20 fold

CCO[C@@H](Cc1ccc(OC/C=C(\C)C#Cc2cc(Cl)cc(Cl)c2)cc1)C(=O)O [Example 8, (E)-(S)-2-ethoxy-3-[4-(3-methyl-5-(3,5-dichloro-phenyl)-pent-2-en-4-ynyloxy)-phenyl]-propionic acid]
EC50 (human PPAR α): 60 nM | In vitro activation PPAR α % max (human PPAR α): 139% | EC50 (human PPAR γ): 310 nM | In vitro activation PPAR γ % max (human PPAR γ): 126%

Reference: patent US7202213B2 (Novo Nordisk A/S, priority 2000, dated 2007)
